{"source": "patent US9248133B2", "about": "“Salts of lorcaserin with optically active acids” (Arena Pharmaceuticals, Inc., priority 2010, dated 2016)", "key": {"[1]": {"assay": "Aqueous solubility by UPLC", "type": "physicochemical", "conditions": "for Solubility in water: UPLC", "protocol": "Acquity ultra performance liquid chromatography (UPLC) from Waters was used for solubility and stoichiometry determination. […] UPLC was equipped with Acquity PDA detector. UPLC mobile phase solvent A was 0.1% TFA in DI-water, solvent B was 0.1% TFA in acetonitrile.\nColumn temperature was 40±5° C. Acquity UPLC® HSS T3 1.8 μm, 2.1×50 mm column was used.\nA known amount of sample was dissolved in water and analyzed by UPLC."}, "[2]": {"assay": "Deliquescence relative humidity (DRH) by water activity meter", "type": "physicochemical", "conditions": "for DRH (deliquescence relative humidity): saturated aqueous solution with excess solid at 25° C.", "excerpt": "If saturated in water with excess solid, a deliquescing compound or salt thereof equilibrated in a closed system at a given temperature produces a % RH in that closed system that is equal to its deliquescing % RH (DRH) at that temperature. Fractional relative humidity is equal to water activity (aw) in the vapor phase and at equilibrium in a closed system, the aw in an aqueous solution is equal to the aw in the vapor phase above the solution (see Equation 1).\nA water activity meter was used to measure DRH for selected salts described herein. […] This instrument is designed with temperature control and a small headspace above the enclosed sample to establish equilibrium between solution and vapor phases quickly."}, "[3]": {"conditions": "cited from earlier work"}, "[4]": {"conditions": "cited from earlier work", "remark": "listed apart in the source"}, "[5]": {"assay": "Dynamic moisture-sorption (DMS) analysis", "conditions": "for State of the sample after DMS analysis: after removal from the analyzer, PXRD where done; for DMS weight increase at 70% RH: adsorption cycle, 25° C., Form I", "experimental": "Samples were prepared for DMS analysis by placing 5 mg to 20 mg of a sample in a tared sample holder. The sample was placed on the hang-down wire of the VTI balance. A drying step was run, typically at 40° C. and 0.5-1% RH for 1-2 h. The isotherm temperature is 25° C. […] A % weight change smaller than 0.010% over a specified number of minutes (typically 10-20), or up to 2 h, whichever occurs first, is required before continuing to the next % RH hold. The water content of the sample equilibrated as described above was determined at each % RH hold."}, "[6]": {"conditions": "pivotal phase 3 program, up to two years"}, "[7]": {"conditions": "second phase 3 trial, top quartile of patients"}, "[8]": {"conditions": "patients who completed 52 weeks of treatment according to the protocol"}}, "data": [{"molecule": "CC1(C)C2CC[C@@]1(CS(=O)(=O)O)C(=O)C2.C[C@H]1CNCCc2ccc(Cl)cc21", "note": "[(R)-8-Chloro-1-methyl-2,3,4,5-tetrahydro-1H-3-benzazepine (1S)-(+)-10-Camsylate Salt]", "values": [{"measurement": "Solubility in water", "setting": "[1]", "result": 20, "unit": "mg/mL"}, {"measurement": "Deliquescence conclusion from DRH", "setting": "[2]; 25° C.", "result": "not deliquescent"}, {"measurement": "DRH (deliquescence relative humidity)", "setting": "[2]", "result": 99.8, "unit": "% RH"}]}, {"molecule": "C[C@H]1CNCCc2ccc(Cl)cc21.C[C@H]1CNCCc2ccc(Cl)cc21.O=C(O)[C@@H](O)[C@H](O)[C@H](O)[C@@H](O)C(=O)O", "note": "[Compound 1 Hemimucate Salt, Form I, (R)-8-Chloro-1-methyl-2,3,4,5-tetrahydro-1H-3-benzazepine Hemimucate]", "values": [{"measurement": "Solubility in water", "setting": "[1]", "result": 0.85, "unit": "mg/mL"}]}, {"molecule": "C[C@H]1CNCCc2ccc(Cl)cc21.Cl", "note": "[lorcaserin, (R)-8-Chloro-1-methyl-2,3,4,5-tetrahydro-1H-3-benzazepine hydrochloride]", "values": [{"measurement": "Excess body weight lost", "setting": "[3]; first phase 3 trial, based on a normal BMI of 25", "result": "about one-third"}, {"measurement": "Patients who achieved at least 5% weight loss", "setting": "[3]; [6]", "result": "About two-thirds"}, {"measurement": "Patients who achieved at least 10% weight loss", "setting": "[3]; [6]", "result": "over one-third"}, {"measurement": "Average weight lost, % of weight", "setting": "[3]; pivotal phase 3 program", "result": "about 8%"}, {"measurement": "Depression or suicidal ideation", "setting": "[3]; pivotal phase 3 program", "result": "no signal"}, {"measurement": "Heart rate and blood pressure", "setting": "[3]; pivotal phase 3 program", "result": "went down"}, {"measurement": "Risk of cardiac valvulopathy", "setting": "[3]; pivotal phase 3 program", "result": "did not increase the risk of cardiac valvulopathy"}, {"measurement": "Average weight loss of the top quartile, % of body weight", "setting": "[3]; [7]", "result": 16, "unit": "%"}, {"measurement": "Average weight loss of the top quartile, pounds", "setting": "[3]; [7]", "result": 35, "unit": "pounds"}, {"measurement": "Average weight loss, % of body weight", "setting": "[4]; 12 months, ITT-LOCF analysis", "result": 5.8, "unit": "%"}, {"measurement": "Average weight loss, pounds", "setting": "[4]; 12 months, ITT-LOCF analysis", "result": 12.7, "unit": "pounds"}, {"measurement": "Patients who lost greater than or equal to 5% of their body weight from baseline", "setting": "[4]; 12 months, ITT-LOCF analysis", "result": 47.5, "unit": "%"}, {"measurement": "Patients who lost greater than or equal to 10% of their body weight from baseline", "setting": "[4]; 12 months, ITT-LOCF analysis", "result": 22.6, "unit": "%"}, {"measurement": "Average weight loss of completers, % of body weight", "setting": "[4]; [8]", "result": 8.2, "unit": "%"}, {"measurement": "Average weight loss of completers, pounds", "setting": "[4]; [8]", "result": 17.9, "unit": "pounds"}, {"measurement": "Tolerability", "setting": "[4]; phase 3 trial", "result": "generally very well tolerated"}, {"measurement": "FDA-defined valvulopathy (echocardiograms)", "setting": "[4]; two-year treatment period", "result": "no apparent drug-related effect"}]}, {"molecule": "(R)-8-Chloro-1-methyl-2,3,4,5-tetrahydro-1H-3-benzazepine Di-camphorate Salt Solvate", "values": [{"measurement": "DMS weight lost on the desorption phase", "setting": "[5]; 25° C. and 10% RH", "result": "over 1.2%"}, {"measurement": "State of the sample after DMS analysis", "setting": "[5]", "result": "crystalline phase did not change"}, {"measurement": "Solubility in water", "setting": "[1]", "result": 38.6, "unit": "mg/mL"}, {"measurement": "Aqueous solubility expressed as the free base", "setting": "[1]; water, pH 5.2", "result": 12.3, "unit": "mg/mL"}]}, {"molecule": "(R)-8-Chloro-1-methyl-2,3,4,5-tetrahydro-1H-3-benzazepine Glucuronate Salt [Compound 1 Glucuronate Salt, Form I]", "values": [{"measurement": "Solubility in water", "setting": "[1]", "result": 2.5, "unit": "mg/mL"}]}, {"molecule": "(R)-8-Chloro-1-methyl-2,3,4,5-tetrahydro-1H-3-benzazepine Hemi-L-malate Salt [Compound 1 Hemi-L-Malate Salt, Form I]", "values": [{"measurement": "Solubility in water", "setting": "[1]", "result": 486.3, "unit": "mg/mL"}, {"measurement": "DRH (deliquescence relative humidity)", "setting": "[2]", "result": 89.9, "unit": "% RH"}]}, {"molecule": "(R)-8-Chloro-1-methyl-2,3,4,5-tetrahydro-1H-3-benzazepine Pyroglutamate Salt [Compound 1 Pyroglutamate Salt, Form I]", "values": [{"measurement": "DMS weight increase at 70% RH", "setting": "[5]", "result": "~17", "unit": "%"}, {"measurement": "DMS weight increase at 70% RH", "setting": "[5]; listed as Compound 1 Pyrogluconate Salt", "result": "FIG. 21: 17-24% weight increase at 70% RH, about"}, {"measurement": "State of the sample after DMS analysis", "setting": "[5]", "result": "sticky oil"}]}]}
